Source: ChEMBL document CHEMBL5325488, “Discovery of SMD-3040 as a Potent and Selective SMARCA2 PROTAC Degrader with Strong in vivo Antitumor Activity” (J Med Chem, 2023)

Key:
[1] = biological target: T1, von Hippel-Lindau disease tumor suppressor/SWI/SNF-related matrix-associated actin-dependent regulator of chromatin subfamily A member 2 (Homo sapiens, UniProt P51531+P40337); assay: PROTAC activity at VHL/SMARCA2 in human RKO cells assessed as induction of SMARCA2 degradation incubated for 18 hrs by Western blotting analysis; format: cell-based
Target sequence in this assay (P51531 whole entry): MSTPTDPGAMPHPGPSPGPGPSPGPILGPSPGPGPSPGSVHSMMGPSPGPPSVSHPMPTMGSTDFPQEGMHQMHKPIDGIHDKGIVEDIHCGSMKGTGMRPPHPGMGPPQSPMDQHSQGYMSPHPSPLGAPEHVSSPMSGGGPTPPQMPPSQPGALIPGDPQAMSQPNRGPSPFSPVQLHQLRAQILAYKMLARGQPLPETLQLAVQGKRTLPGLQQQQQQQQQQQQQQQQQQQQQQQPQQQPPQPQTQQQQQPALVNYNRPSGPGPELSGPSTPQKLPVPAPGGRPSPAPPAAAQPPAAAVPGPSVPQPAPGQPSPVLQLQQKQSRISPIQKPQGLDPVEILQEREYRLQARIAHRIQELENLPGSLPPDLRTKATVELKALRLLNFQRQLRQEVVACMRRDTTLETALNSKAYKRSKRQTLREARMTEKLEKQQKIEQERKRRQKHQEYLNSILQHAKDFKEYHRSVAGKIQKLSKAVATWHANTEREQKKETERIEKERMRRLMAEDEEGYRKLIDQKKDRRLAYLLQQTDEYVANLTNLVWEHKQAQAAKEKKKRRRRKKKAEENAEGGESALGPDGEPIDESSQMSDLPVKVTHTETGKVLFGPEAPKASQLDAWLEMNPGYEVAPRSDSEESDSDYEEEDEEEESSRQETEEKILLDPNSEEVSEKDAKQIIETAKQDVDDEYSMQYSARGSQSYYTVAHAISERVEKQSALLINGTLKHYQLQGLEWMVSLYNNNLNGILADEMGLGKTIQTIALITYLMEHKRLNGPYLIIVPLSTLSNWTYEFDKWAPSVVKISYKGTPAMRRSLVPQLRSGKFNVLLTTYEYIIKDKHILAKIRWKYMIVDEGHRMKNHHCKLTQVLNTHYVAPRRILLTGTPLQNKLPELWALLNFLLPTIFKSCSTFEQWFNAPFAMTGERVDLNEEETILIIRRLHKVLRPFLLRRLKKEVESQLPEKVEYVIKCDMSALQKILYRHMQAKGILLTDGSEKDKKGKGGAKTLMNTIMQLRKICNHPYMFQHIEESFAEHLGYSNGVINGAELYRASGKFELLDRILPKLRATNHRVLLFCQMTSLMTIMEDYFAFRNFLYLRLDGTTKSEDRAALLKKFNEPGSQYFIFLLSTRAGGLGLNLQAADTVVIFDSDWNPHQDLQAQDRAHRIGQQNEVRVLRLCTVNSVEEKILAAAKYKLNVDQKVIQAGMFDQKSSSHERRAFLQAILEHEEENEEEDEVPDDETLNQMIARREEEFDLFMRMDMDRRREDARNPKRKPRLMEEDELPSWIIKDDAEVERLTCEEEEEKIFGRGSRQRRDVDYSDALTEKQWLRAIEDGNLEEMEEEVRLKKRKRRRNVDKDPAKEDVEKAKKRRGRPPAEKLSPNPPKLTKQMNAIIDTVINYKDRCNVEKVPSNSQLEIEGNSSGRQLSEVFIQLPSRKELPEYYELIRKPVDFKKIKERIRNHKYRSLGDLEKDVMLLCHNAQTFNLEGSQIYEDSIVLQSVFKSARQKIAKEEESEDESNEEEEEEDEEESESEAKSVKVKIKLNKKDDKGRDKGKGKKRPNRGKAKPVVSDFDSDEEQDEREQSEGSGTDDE
Target sequence in this assay (P40337 whole entry): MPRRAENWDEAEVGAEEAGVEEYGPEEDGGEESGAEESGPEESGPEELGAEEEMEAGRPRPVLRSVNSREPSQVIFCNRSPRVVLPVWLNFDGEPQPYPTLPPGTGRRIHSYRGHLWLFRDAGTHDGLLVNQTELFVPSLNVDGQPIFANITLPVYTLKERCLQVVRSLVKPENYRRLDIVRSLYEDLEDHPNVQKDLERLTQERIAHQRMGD

[2] = biological target: T1, von Hippel-Lindau disease tumor suppressor/SWI/SNF-related matrix-associated actin-dependent regulator of chromatin subfamily A member 2; assay: PROTAC activity at VHL/SMARCA2 in human RKO cells assessed as induction of SMARCA2 degradation by measuring maximal efficacy incubated for 18 hrs by Western blotting analysis relative to control; format: cell-based
[3] = biological target: T2, von Hippel-Lindau disease tumor suppressor/SWI/SNF-related matrix-associated actin-dependent regulator of chromatin subfamily A member 4 (Homo sapiens, UniProt P51532+P40337); assay: PROTAC activity at VHL/SMARCA4 in human RKO cells assessed as induction of […] degradation incubated for 18 hrs by Western blotting analysis; format: cell-based
Target sequence in this assay (P51532 whole entry): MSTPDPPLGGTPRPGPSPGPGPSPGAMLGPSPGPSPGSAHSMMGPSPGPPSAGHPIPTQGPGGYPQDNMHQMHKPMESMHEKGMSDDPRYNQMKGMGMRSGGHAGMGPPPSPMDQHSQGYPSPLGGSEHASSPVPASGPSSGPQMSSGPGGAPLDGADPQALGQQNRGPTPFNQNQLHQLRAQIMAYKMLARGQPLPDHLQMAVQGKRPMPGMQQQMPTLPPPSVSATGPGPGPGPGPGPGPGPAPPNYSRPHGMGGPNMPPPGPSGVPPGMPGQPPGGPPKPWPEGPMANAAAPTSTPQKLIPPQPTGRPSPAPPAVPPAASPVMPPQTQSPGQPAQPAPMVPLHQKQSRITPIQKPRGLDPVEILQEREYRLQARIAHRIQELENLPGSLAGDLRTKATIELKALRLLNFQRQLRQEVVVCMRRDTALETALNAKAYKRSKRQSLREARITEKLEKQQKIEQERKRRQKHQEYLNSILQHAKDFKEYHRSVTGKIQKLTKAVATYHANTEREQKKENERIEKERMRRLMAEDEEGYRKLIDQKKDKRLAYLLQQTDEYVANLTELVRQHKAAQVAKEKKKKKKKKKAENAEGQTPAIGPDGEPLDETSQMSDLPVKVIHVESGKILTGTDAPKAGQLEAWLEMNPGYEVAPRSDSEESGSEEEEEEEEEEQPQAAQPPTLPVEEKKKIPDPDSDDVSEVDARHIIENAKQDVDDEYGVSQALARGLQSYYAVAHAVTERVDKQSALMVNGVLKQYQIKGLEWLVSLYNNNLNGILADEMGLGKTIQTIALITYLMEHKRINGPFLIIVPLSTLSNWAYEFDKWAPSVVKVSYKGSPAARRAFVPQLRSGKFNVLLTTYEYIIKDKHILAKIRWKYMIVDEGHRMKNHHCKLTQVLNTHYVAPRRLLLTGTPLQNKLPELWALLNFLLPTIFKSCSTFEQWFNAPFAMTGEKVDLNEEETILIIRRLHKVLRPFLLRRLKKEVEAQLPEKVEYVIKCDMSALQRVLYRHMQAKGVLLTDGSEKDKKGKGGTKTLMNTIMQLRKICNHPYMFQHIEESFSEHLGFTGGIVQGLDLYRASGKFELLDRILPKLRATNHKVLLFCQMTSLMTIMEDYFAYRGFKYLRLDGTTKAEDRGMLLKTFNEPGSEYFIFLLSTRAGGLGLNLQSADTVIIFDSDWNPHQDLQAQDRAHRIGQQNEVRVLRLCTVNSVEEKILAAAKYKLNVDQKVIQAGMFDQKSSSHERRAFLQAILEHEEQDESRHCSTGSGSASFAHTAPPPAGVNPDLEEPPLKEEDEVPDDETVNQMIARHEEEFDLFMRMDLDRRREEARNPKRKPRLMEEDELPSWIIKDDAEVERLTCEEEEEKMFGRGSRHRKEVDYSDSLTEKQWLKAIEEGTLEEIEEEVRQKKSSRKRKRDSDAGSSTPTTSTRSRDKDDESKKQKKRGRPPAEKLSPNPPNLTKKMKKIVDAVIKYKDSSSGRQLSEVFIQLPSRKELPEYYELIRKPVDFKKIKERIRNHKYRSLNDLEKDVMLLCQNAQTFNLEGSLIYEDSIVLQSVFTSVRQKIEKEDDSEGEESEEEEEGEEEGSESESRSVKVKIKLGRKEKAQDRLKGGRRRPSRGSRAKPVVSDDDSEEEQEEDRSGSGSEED
Target sequence in this assay (P40337 whole entry): as the sequence (P40337 whole entry) above

[4] = biological target: T2, von Hippel-Lindau disease tumor suppressor/SWI/SNF-related matrix-associated actin-dependent regulator of chromatin subfamily A member 4; assay: PROTAC activity at VHL/SMARCA4 in human RKO cells assessed as induction of […] degradation by measuring maximal efficacy incubated for 18 hrs by Western blotting analysis relative to control; format: cell-based
[5] = biological target: T1, von Hippel-Lindau disease tumor suppressor/SWI/SNF-related matrix-associated actin-dependent regulator of chromatin subfamily A member 2; assay: PROTAC activity at VHL/C-terminal HiBiT fused SMARCA2 in human HeLa cells assessed as induction of SMARCA2 degradation by measuring maximal efficacy incubated for 24 hrs by Nano-Glo HiBiT analysis relative to control; format: cell-based
[6] = biological target: T2, von Hippel-Lindau disease tumor suppressor/SWI/SNF-related matrix-associated actin-dependent regulator of chromatin subfamily A member 4; assay: PROTAC activity at VHL/C-terminal HiBiT fused SMARCA4 in human HeLa cells assessed as induction of SMARCA4 degradation incubated for 24 hrs by Nano-Glo HiBiT analysis; format: cell-based
Target sequence in this assay (P51532 whole entry): as the sequence (P51532 whole entry) above
Target sequence in this assay (P40337 whole entry): as the sequence (P40337 whole entry) above

[7] = biological target: T2, von Hippel-Lindau disease tumor suppressor/SWI/SNF-related matrix-associated actin-dependent regulator of chromatin subfamily A member 4; assay: PROTAC activity at VHL/C-terminal HiBiT fused SMARCA4 in human HeLa cells assessed as induction of SMARCA4 degradation by measuring maximal efficacy incubated for 24 hrs by Nano-Glo HiBiT analysis relative to control; format: cell-based
[8] = biological target: T1, von Hippel-Lindau disease tumor suppressor/SWI/SNF-related matrix-associated actin-dependent regulator of chromatin subfamily A member 2; assay: PROTAC activity at VHL/C-terminal HiBiT fused SMARCA2 in human HeLa cells assessed as induction of SMARCA2 degradation incubated for 6 to 48 hrs by Nano-Glo HiBiT analysis; format: cell-based; settings: dose lower 1e-06 µM, dose upper 1.0 µM, time 6-48 hrs
[9] = biological target: T1, von Hippel-Lindau disease tumor suppressor/SWI/SNF-related matrix-associated actin-dependent regulator of chromatin subfamily A member 2; assay: PROTAC activity at VHL/C-terminal HiBiT fused SMARCA2 in human HeLa cells assessed as induction of SMARCA2 degradation at 0.000001 to 1 uM by Nano-Glo HiBiT analysis; format: cell-based; settings: dose lower 1e-06 µM, dose upper 1.0 µM, time 6-48 hrs, TDE = time-dependent effect
[10] = biological target: T2, von Hippel-Lindau disease tumor suppressor/SWI/SNF-related matrix-associated actin-dependent regulator of chromatin subfamily A member 4; assay: PROTAC activity at VHL/C-terminal HiBiT fused SMARCA4 in human HeLa cells assessed as induction of SMARCA4 degradation incubated for 6 to 48 hrs by Nano-Glo HiBiT analysis; format: cell-based; settings: dose lower 1e-05 µM, dose upper 1.0 µM, time 6-48 hrs
[11] = biological target: T2, von Hippel-Lindau disease tumor suppressor/SWI/SNF-related matrix-associated actin-dependent regulator of chromatin subfamily A member 4; assay: PROTAC activity at VHL/C-terminal HiBiT fused SMARCA4 in human HeLa cells assessed as induction of SMARCA4 degradation at 0.00001 to 1 uM by Nano-Glo HiBiT analysis; format: cell-based; settings: dose lower 1e-05 µM, dose upper 1.0 µM, time 6-48 hrs, TDE = time-dependent effect
NCI-H1299 [12] = assay: Antiproliferative activity against SMARCA4-deficient human NCI-H1299 cells assessed as cell growth inhibition measured after 7 days by WST-8 assay; format: functional; settings: NCI-H1299, 168 h, time 7 day
NCI-H838 [13] = assay: Antiproliferative activity against SMARCA4-deficient human NCI-H838 cells assessed as cell growth inhibition measured after 7 days by WST-8 assay; format: functional; settings: NCI-H838, 168 h, time 7 day
A549 [14] = assay: Antiproliferative activity against SMARCA4-deficient human A549 cells assessed as cell growth inhibition measured after 7 days by WST-8 assay; format: functional; settings: A549, 168 h, time 7 day
NCI-H1944 [15] = assay: Antiproliferative activity against SMARCA4-deficient human NCI-H1944 cells assessed as cell growth inhibition measured after 7 days by WST-8 assay; format: functional; settings: NCI-H1944, 168 h, time 7 day
NCI-H1793 [16] = assay: Antiproliferative activity against SMARCA4-deficient human NCI-H1793 cells assessed as cell growth inhibition measured after 7 days by WST-8 assay; format: functional; settings: NCI-H1793, 168 h, time 7 day
SK-MEL-5 [17] = assay: Antiproliferative activity against SMARCA4-deficient human SK-MEL-5 cells assessed as cell growth inhibition measured after 7 days by WST-8 assay; format: functional; settings: SK-MEL-5, 168 h, time 7 day
NCI-H1693 [18] = assay: Antiproliferative activity against SMARCA4-deficient human NCI-H1693 cells assessed as cell growth inhibition measured after 7 days by WST-8 assay; format: functional; settings: NCI-H1693, 168 h, time 7 day
[19] = Antiproliferative activity against SMARCA4-deficient human NCI-H1568 cells assessed as cell growth inhibition measured after 7 days by WST-8 assay; format: functional; settings: NCI-H1568, 168 h, time 7 day
NCI-H1792 [20] = assay: Antiproliferative activity against human NCI-H1792 cells expressing wild-type SMARCA2 assessed as cell growth inhibition measured after 7 days by WST-8 assay; format: functional; settings: NCI-H1792, 168 h, time 7 day
NCI-H1975 [21] = assay: Antiproliferative activity against human NCI-H1975 cells expressing wild-type SMARCA2 assessed as cell growth inhibition measured after 7 days by WST-8 assay; format: functional; settings: NCI-H1975, 168 h, time 7 day
SK-MEL-28 [22] = assay: Antiproliferative activity against human SK-MEL-28 cells expressing wild-type SMARCA2 assessed as cell growth inhibition measured after 7 days by WST-8 assay; format: functional; settings: SK-MEL-28, 168 h, time 7 day
NCI-H647 [23] = assay: Antiproliferative activity against human NCI-H647 cells expressing wild-type SMARCA2 assessed as cell growth inhibition measured after 7 days by WST-8 assay; format: functional; settings: NCI-H647, 168 h, time 7 day
NCI-H1299 [24] = assay: Antiproliferative activity against SMARCA4-deficient human NCI-H1299 cells assessed as cell growth inhibition by measuring maximal efficacy measured after 7 days by WST-8 assay relative to control; format: functional; settings: time 7 day
NCI-H838 [25] = assay: Antiproliferative activity against SMARCA4-deficient human NCI-H838 cells assessed as cell growth inhibition by measuring maximal efficacy measured after 7 days by WST-8 assay relative to control; format: functional; settings: time 7 day
A549 [26] = assay: Antiproliferative activity against SMARCA4-deficient human A549 cells assessed as cell growth inhibition by measuring maximal efficacy measured after 7 days by WST-8 assay relative to control; format: functional; settings: time 7 day
NCI-H1944 [27] = assay: Antiproliferative activity against SMARCA4-deficient human NCI-H1944 cells assessed as cell growth inhibition by measuring maximal efficacy measured after 7 days by WST-8 assay relative to control; format: functional; settings: time 7 day
NCI-H1793 [28] = assay: Antiproliferative activity against SMARCA4-deficient human NCI-H1793 cells assessed as cell growth inhibition by measuring maximal efficacy measured after 7 days by WST-8 assay relative to control; format: functional; settings: time 7 day
SK-MEL-5 [29] = assay: Antiproliferative activity against SMARCA4-deficient human SK-MEL-5 cells assessed as cell growth inhibition by measuring maximal efficacy measured after 7 days by WST-8 assay relative to control; format: functional; settings: time 7 day
NCI-H1693 [30] = assay: Antiproliferative activity against SMARCA4-deficient human NCI-H1693 cells assessed as cell growth inhibition by measuring maximal efficacy measured after 7 days by WST-8 assay relative to control; format: functional; settings: time 7 day
[31] = Antiproliferative activity against SMARCA4-deficient human NCI-H1568 cells assessed as cell growth inhibition by measuring maximal efficacy measured after 7 days by WST-8 assay relative to control; format: functional; settings: time 7 day
NCI-H1792 [32] = assay: Antiproliferative activity against human NCI-H1792 cells expressing wild-type SMARCA2 assessed as cell growth inhibition by measuring maximal efficacy measured after 7 days by WST-8 assay relative to control; format: functional; settings: time 7 day
NCI-H1975 [33] = assay: Antiproliferative activity against human NCI-H1975 cells expressing wild-type SMARCA2 assessed as cell growth inhibition by measuring maximal efficacy measured after 7 days by WST-8 assay relative to control; format: functional; settings: time 7 day
SK-MEL-28 [34] = assay: Antiproliferative activity against human SK-MEL-28 cells expressing wild-type SMARCA2 assessed as cell growth inhibition by measuring maximal efficacy measured after 7 days by WST-8 assay relative to control; format: functional; settings: time 7 day
NCI-H647 [35] = assay: Antiproliferative activity against human NCI-H647 cells expressing wild-type SMARCA2 assessed as cell growth inhibition by measuring maximal efficacy measured after 7 days by WST-8 assay relative to control; format: functional; settings: time 7 day
[36] = biological target: T1, von Hippel-Lindau disease tumor suppressor/SWI/SNF-related matrix-associated actin-dependent regulator of chromatin subfamily A member 2; assay: PROTAC activity at VHL/SMARCA2 in human SW1573 cells assessed as induction of SMARCA2 degradation incubated for 20 hrs by Western blotting analysis; format: cell-based
Target sequence in this assay (P51531 whole entry): as the sequence (P51531 whole entry) above
Target sequence in this assay (P40337 whole entry): as the sequence (P40337 whole entry) above

[37] = biological target: T1, von Hippel-Lindau disease tumor suppressor/SWI/SNF-related matrix-associated actin-dependent regulator of chromatin subfamily A member 2; assay: PROTAC activity at VHL/SMARCA2 in human SW1573 cells assessed as induction of SMARCA2 degradation by measuring maximal efficacy incubated for 20 hrs by Western blotting analysis relative to control; format: cell-based
[38] = biological target: T2, von Hippel-Lindau disease tumor suppressor/SWI/SNF-related matrix-associated actin-dependent regulator of chromatin subfamily A member 4; assay: PROTAC activity at VHL/SMARCA4 in human SW1573 cells assessed as induction of […] degradation incubated for 20 hrs by Western blotting analysis; format: cell-based
Target sequence in this assay (P51532 whole entry): as the sequence (P51532 whole entry) above
Target sequence in this assay (P40337 whole entry): as the sequence (P40337 whole entry) above

[39] = biological target: T2, von Hippel-Lindau disease tumor suppressor/SWI/SNF-related matrix-associated actin-dependent regulator of chromatin subfamily A member 4; assay: PROTAC activity at VHL/SMARCA4 in human SW1573 cells assessed as induction of […] degradation by measuring maximal efficacy incubated for 20 hrs by Western blotting analysis relative to control; format: cell-based
[40] = biological target: T1, von Hippel-Lindau disease tumor suppressor/SWI/SNF-related matrix-associated actin-dependent regulator of chromatin subfamily A member 2; assay: PROTAC activity at VHL/C-terminal HiBiT fused SMARCA2 in human HeLa cells assessed as induction of SMARCA2 degradation incubated for 24 hrs by Nano-Glo HiBiT analysis; format: cell-based
Target sequence in this assay (P51531 whole entry): as the sequence (P51531 whole entry) above
Target sequence in this assay (P40337 whole entry): as the sequence (P40337 whole entry) above

SMILES	Emax [5] [%]	DC50 [6] [nM]	Emax [7] [%]	Activity [8]	Activity [9]	Activity [10]	Activity [11]	GI50 (NCI-H1299 [12]) [nM]	GI50 (NCI-H838 [13]) [nM]	GI50 (A549 [14]) [nM]	GI50 (NCI-H1944 [15]) [nM]	GI50 (NCI-H1793 [16]) [nM]	GI50 (SK-MEL-5 [17]) [nM]	GI50 (NCI-H1693 [18]) [nM]	GI50 [19] [nM]	GI50 (NCI-H1792 [20]) [nM]	GI50 (NCI-H1975 [21]) [nM]	GI50 (SK-MEL-28 [22]) [nM]	GI50 (NCI-H647 [23]) [nM]	Imax (NCI-H1299 [24]) [%]	also measured
Cc1ncsc1-c1ccc([C@H](CC[C@H](C)CCN2CCC(c3ccc4c(c3)n(C3CCCC3)c3nc(=O)c5c(Br)cccc5n43)CC2)NC(=O)[C@@H]2C[C@@H](O)CN2C(=O)[C@@H](NC(=O)C2(F)CC2)C(C)(C)C)cc1	94	9	92	Dose-Dependent Effect	Tde	Dose-Dependent Effect	Tde	116	67	30	13	7.3	4.9	2.8	2.8	135	65	> 10000	165	74	DC50 [1]: 1 nM; Emax [2]: 81%; DC50 [3]: 32 nM; Emax [4]: 67%; Imax (NCI-H838 [25]): 82%; Imax (A549 [26]): 56%; Imax (NCI-H1944 [27]): 82%; Imax (NCI-H1793 [28]): 68%; Imax (SK-MEL-5 [29]): 96%; Imax (NCI-H1693 [30]): 86%; Imax [31]: 90%; Imax (NCI-H1792 [32]): 65%; Imax (NCI-H1975 [33]): 63%; Imax (SK-MEL-28 [34]): 50%; Imax (NCI-H647 [35]): 80%
Cc1ncsc1-c1ccc([C@H](C)NC(=O)[C@@H]2C[C@@H](O)CN2C(=O)[C@@H](c2cc(N3CCC(CN4CCC(O[C@H]5C[C@H](Oc6cccc(CN7C8CCC7CN(c7cc(-c9ccccc9O)nnc7N)C8)c6)C5)CC4)CC3)no2)C(C)C)cc1	96	2	98	Dose-Dependent Effect	Tde	Dose-Dependent Effect	Tde	31	5	3.3	0.9	1	0.4	0.2	0.3	17	18	8.1	8.1	68	DC50 [36]: 0.039 nM; Emax [37]: 96%; DC50 [38]: 1.1 nM; Emax [39]: 92%; DC50 [40]: 0.12 nM; Imax (NCI-H838 [25]): 93%; Imax (A549 [26]): 52%; Imax (NCI-H1944 [27]): 87%; Imax (NCI-H1793 [28]): 67%; Imax (SK-MEL-5 [29]): 96%; Imax (NCI-H1693 [30]): 82%; Imax [31]: 84%; Imax (NCI-H1792 [32]): 69%; Imax (NCI-H1975 [33]): 50%; Imax (SK-MEL-28 [34]): 92%; Imax (NCI-H647 [35]): 68%
